Measurements from patent US11051515B2, “3-acyl-benzamides and their use as herbicides” (Bayer Aktiengesellschaft, priority 2017, dated 2021).

Columns and labels:
ALOMY [1] = assay: Pre-emergence action against ALOMY; type: in vivo, Alopecurus myosuroides; conditions: dosage 320 g/ha; pre-emergence; scored visually after 3 weeks vs untreated controls; 100% = plants have died, 0% = like control plants
Summary of the method: (§1)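 Seeds sown in sandy loam in wood-fiber pots and covered with soil. Greenhouse growth; visual damage scored after 3 weeks versus untreated controls (100% = dead, 0% = like control).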

AVEFA [2] = assay: Pre-emergence action against AVEFA; type: in vivo, Avena fatua; conditions: dosage 320 g/ha, scored visually after 3 weeks vs untreated controls
Summary of the method: as §1

ECHCG [3] = assay: Pre-emergence action against ECHCG; type: in vivo, Echinochloa crus-galli; conditions: pre-emergence, dosage 320 g/ha, scored visually after 3 weeks vs untreated controls
Summary of the method: as §1

LOLRI [4] = assay: Pre-emergence action against LOLRI; type: in vivo, Lolium rigidum; conditions: dosage 320 g/ha, scored visually after 3 weeks vs untreated controls
Summary of the method: as §1

SETVI [5] = assay: Pre-emergence action against SETVI; type: in vivo, Setaria viridis; conditions: pre-emergence, dosage 320 g/ha, scored visually after 3 weeks vs untreated controls
Summary of the method: as §1

ABUTH [6] = assay: Pre-emergence action against ABUTH; type: in vivo, Abutilon theophrasti; conditions: pre-emergence, dosage 320 g/ha, scored visually after 3 weeks vs untreated controls
Summary of the method: as §1

AMARE [7] = assay: Pre-emergence action against AMARE; type: in vivo, Amaranthus retroflexus; conditions: pre-emergence, dosage 320 g/ha, scored visually after 3 weeks vs untreated controls
Summary of the method: as §1

MATIN [8] = assay: Pre-emergence action against MATIN; type: in vivo, Matricaria inodora; conditions: Dosage 320 g/ha, pre-emergence
Summary of the method: as §1

PHBPU [9] = assay: Pre-emergence action against PHBPU; type: in vivo, Pharbitis purpurea; conditions: Dosage 320 g/ha, pre-emergence
Summary of the method: as §1

POLCO [10] = assay: Pre-emergence action against POLCO; type: in vivo, Polygonum convolvulus; conditions: Dosage 320 g/ha, pre-emergence
Summary of the method: as §1

STEME [11] = assay: Pre-emergence action against STEME; type: in vivo, Stellaria media; conditions: Dosage 320 g/ha, pre-emergence
Summary of the method: as §1

VIOTR [12] = assay: Pre-emergence action against VIOTR; type: in vivo, Viola tricolor; conditions: Dosage 320 g/ha, pre-emergence
Summary of the method: as §1

VERPE [13] = assay: Pre-emergence action against VERPE; type: in vivo, Veronica persica; conditions: Dosage 320 g/ha, pre-emergence
Summary of the method: as §1

HORMU [14] = assay: Pre-emergence action against HORMU; type: in vivo, Hordeum murinum; conditions: Dosage 320 g/ha
Summary of the method: as §1

ALOMY [15] = assay: Post-emergence action against ALOMY; type: in vivo, Alopecurus myosuroides; conditions: Dosage 80 g/ha, post-emergence
Summary of the method: (§2)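 Post-emergence foliar spray on greenhouse plants at the one-leaf stage, using wettable-powder or emulsion-concentrate formulations in water (600 to […], plus 0.2% wetting agent). Damage scored by eye roughly 3 weeks later against untreated plants: 0% = like control, 100% = dead.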

AVEFA [16] = assay: Post-emergence action against AVEFA; type: in vivo, Avena fatua; conditions: post-emergence, dosage 80 g/ha, visual assessment about 3 weeks after treatment vs untreated controls
Summary of the method: as §2

CYPES [17] = assay: Post-emergence action against CYPES; type: in vivo, Cyperus esculentus; conditions: post-emergence, dosage 80 g/ha, visual assessment about 3 weeks after treatment vs untreated controls
Summary of the method: as §2

ECHCG [18] = assay: Post-emergence action against ECHCG; type: in vivo, Echinochloa crus-galli; conditions: post-emergence, dosage 80 g/ha, visual assessment about 3 weeks after treatment vs untreated controls
Summary of the method: as §2

LOLRI [19] = assay: Post-emergence action against LOLRI; type: in vivo, Lolium rigidum; conditions: dosage 80 g/ha, visual assessment about 3 weeks after treatment vs untreated controls
Summary of the method: as §2

SETVI [20] = assay: Post-emergence action against SETVI; type: in vivo, Setaria viridis; conditions: post-emergence, dosage 80 g/ha, visual assessment about 3 weeks after treatment vs untreated controls
Summary of the method: as §2

ABUTH [21] = assay: Post-emergence action against ABUTH; type: in vivo, Abutilon theophrasti; conditions: post-emergence, dosage 80 g/ha, visual assessment about 3 weeks after treatment vs untreated controls
Summary of the method: as §2

AMARE [22] = assay: Post-emergence action against AMARE; type: in vivo, Amaranthus retroflexus; conditions: post-emergence, dosage 80 g/ha, visual assessment about 3 weeks after treatment vs untreated controls
Summary of the method: as §2

MATIN [23] = assay: Post-emergence action against MATIN; type: in vivo, Matricaria inodora; conditions: post-emergence, dosage 80 g/ha, visual assessment about 3 weeks after treatment vs untreated controls
Summary of the method: as §2

PHBPU [24] = assay: Post-emergence action against PHBPU; type: in vivo, Pharbitis purpurea; conditions: post-emergence, dosage 80 g/ha
Summary of the method: as §2

POLCO [25] = assay: Post-emergence action against POLCO; type: in vivo, Polygonum convolvulus; conditions: post-emergence, dosage 80 g/ha
Summary of the method: as §2

STEME [26] = assay: Post-emergence action against STEME; type: in vivo, Stellaria media; conditions: post-emergence, dosage 80 g/ha
Summary of the method: as §2

VIOTR [27] = assay: Post-emergence action against VIOTR; type: in vivo, Viola tricolor; conditions: post-emergence, dosage 80 g/ha
Summary of the method: as §2

VERPE [28] = assay: Post-emergence action against VERPE; type: in vivo, Veronica persica; conditions: dosage 80 g/ha
Summary of the method: as §2

HORMU [29] = assay: Post-emergence action against HORMU; type: in vivo, Hordeum murinum; conditions: dosage 80 g/ha
Procedure: Seeds of monocotyledonous and dicotyledonous weed and crop plants are laid out in sandy loam soil in wood-fiber pots, covered with soil and cultivated in a greenhouse under good growth conditions. 2 to 3 weeks after sowing, the test plants are treated at the one-leaf stage. The compounds of the invention, formulated in the form of wettable powders (WP) or as emulsion concentrates (EC), are then sprayed onto the green parts of the plants in the form of an aqueous suspension or emulsion at a water application rate equating to […], with addition of 0.2% wetting agent. After the test plants have been left to stand in the greenhouse under optimal growth conditions for about 3 weeks, the action of the preparations is assessed visually in comparison to untreated controls (herbicidal action in percent (%): 100% activity=the plants have died, 0% activity=like control plants). […] At the same time, inventive compounds leave Gramineae crops such as barley, wheat, rye, millet/Sorghum, corn or rice virtually undamaged when applied post-emergence, even at high active ingredient dosages. In addition, some substances are also harmless to dicotyledonous crops such as soya, cotton, oilseed rape, sugar beet or potatoes. Some of the compounds according to the invention have high selectivity and are therefore suitable for controlling unwanted vegetation in agricultural crops by the post-emergence method. The data of Tables B18 to B34 below illustrate, in an exemplary manner, the […] herbicidal action of the compounds according to the invention, the herbicidal activity being stated in percent.

CYPES [30] = assay: Pre-emergence action against CYPES; type: in vivo, Cyperus esculentus; conditions: pre-emergence, dosage 320 g/ha, scored visually after 3 weeks vs untreated controls
Summary of the method: as §1

LOLMU [31] = assay: Pre-emergence action against LOLMU; type: in vivo, Lolium multiflorum; conditions: dosage 320 g/ha, scored visually after 3 weeks vs untreated controls
Summary of the method: as §1

LOLMU [32] = assay: Post-emergence action against LOLMU; type: in vivo, Lolium multiflorum; conditions: dosage 80 g/ha, visual assessment about 3 weeks after treatment vs untreated controls
Summary of the method: as §2

SMILES	Pre-emergence action against ALOMY (herbicidal activity in percent) (ALOMY [1])	Pre-emergence action against AVEFA (herbicidal activity) (AVEFA [2])	Pre-emergence action against ECHCG (herbicidal activity) (ECHCG [3])	SETVI (Table B8, pre-emergence herbicidal activity) (SETVI [5])	Pre-emergence action against ABUTH (herbicidal activity) (ABUTH [6])	Pre-emergence action against AMARE (herbicidal activity) (AMARE [7])	Pre-emergence action against MATIN (MATIN [8])	Pre-emergence action against PHBPU (PHBPU [9])	Pre-emergence action against POLCO (POLCO [10])	Pre-emergence action against STEME (STEME [11])	Pre-emergence action against VIOTR (VIOTR [12])	Pre-emergence action against VERPE (VERPE [13])	Post-emergence action against CYPES (herbicidal action in percent) (CYPES [17])	Post-emergence action against ECHCG (herbicidal action in percent) (ECHCG [18])	Post-emergence action against SETVI (herbicidal action in percent) (SETVI [20])	Post-emergence action against ABUTH (herbicidal action in percent) (ABUTH [21])	Post-emergence action against AMARE (herbicidal action in percent) (AMARE [22])	Post-emergence action against MATIN (herbicidal action in percent) (MATIN [23])	Post-emergence action against PHBPU (PHBPU [24])	Post-emergence action against POLCO (POLCO [25])	other results
CCn1nnnc1NC(=O)c1ccc(C(F)F)c(C(=O)C2CC2)c1SC [2-67]	100%	100%	100%	100%	100%	100%	100%	90%	90%	100%	100%	100%	80%	100%	100%	100%	100%	100%	100	100	Pre-emergence action against LOLRI (herbicidal activity) (LOLRI [4]): 100%; Pre-emergence action against HORMU (HORMU [14]): 100%; Post-emergence action against ALOMY (ALOMY [15]): 100%; Post-emergence action against AVEFA (herbicidal action in percent) (AVEFA [16]): 100%; Post-emergence action against LOLRI (herbicidal action in percent) (LOLRI [19]): 80%; Post-emergence action against STEME (STEME [26]): 100; Post-emergence action against VIOTR (VIOTR [27]): 100; Post-emergence action against VERPE (VERPE [28]): 90; Post-emergence action against HORMU (HORMU [29]): 80
CCn1nnnc1NC(=O)c1ccc(Cl)c(C(=O)C2CC2)c1Cl [2-116]	100%	90%	100%	100%	100%	100%	100%	90%	90%	90%	100%	100%	80%	90%	90%	80%	90%	90%	100	90	Pre-emergence action against CYPES (herbicidal activity) (CYPES [30]): 90%; Pre-emergence action against LOLMU (herbicidal activity) (LOLMU [31]): 100%; Post-emergence action against ALOMY (ALOMY [15]): 80%; Post-emergence action against AVEFA (herbicidal action in percent) (AVEFA [16]): 90%; Post-emergence action against LOLMU (herbicidal action in percent) (LOLMU [32]): 90%; Post-emergence action against STEME (STEME [26]): 90; Post-emergence action against VIOTR (VIOTR [27]): 100; Post-emergence action against VERPE (VERPE [28]): 90
CCCn1nnnc1NC(=O)c1ccc(C(F)F)c(C(=O)C2CC2)c1SC [3-67]	100%	100%	100%	100%	100%	100%	100%	100%	90%	90%	100%	100%	80%	100%	100%	100%	100%	100%	100	80	Pre-emergence action against CYPES (herbicidal activity) (CYPES [30]): 100%; Pre-emergence action against LOLRI (herbicidal activity) (LOLRI [4]): 100%; Pre-emergence action against HORMU (HORMU [14]): 100%; Post-emergence action against LOLRI (herbicidal action in percent) (LOLRI [19]): 80%; Post-emergence action against STEME (STEME [26]): 100; Post-emergence action against VIOTR (VIOTR [27]): 100; Post-emergence action against VERPE (VERPE [28]): 80; Post-emergence action against HORMU (HORMU [29]): 80
CCn1nnnc1NC(=O)c1ccc(C(F)(F)F)c(C(=O)C2CC2)c1SC [2-60]	100%	100%	100%	100%	100%	100%	100%	100%	100%	100%	100%	100%	90%	100%	100%	100%	100%	90%	100	90	Pre-emergence action against CYPES (herbicidal activity) (CYPES [30]): 100%; Pre-emergence action against LOLRI (herbicidal activity) (LOLRI [4]): 100%; Pre-emergence action against HORMU (HORMU [14]): 100%; Post-emergence action against ALOMY (ALOMY [15]): 100%; Post-emergence action against AVEFA (herbicidal action in percent) (AVEFA [16]): 80%; Post-emergence action against LOLRI (herbicidal action in percent) (LOLRI [19]): 90%; Post-emergence action against STEME (STEME [26]): 100; Post-emergence action against VIOTR (VIOTR [27]): 100; Post-emergence action against VERPE (VERPE [28]): 100; Post-emergence action against HORMU (HORMU [29]): 100
